Data set [1] has as its system Hair follicle stem cells (HFSCs). In words: Western blot of cultured HFSCs stimulated with OSM, with or without JAK inhibitor pre-treatment. In kind it is cell-based, mouse. On the procedure:
(§1) HFSCs (ITGA6+ Sca-1−) cells were collected from flow cytometry and plated onto 6-well plates, and maintained with Cnt-07S keratinocyte media. In vitro stimulation experiments were carried out when keratinocytes were 80-90% confluent. Confluent HFSCs were pre-treated with JAK inhibitors (tofacitinib, ruxolitinib or PF-06651600, all at 10 μM) for 20 min, and murine OSM was added for a final concentration of 10 ng/ml or 20 ng/ml for 15 min. For clonogenic assays, HFSCs were plated at a density of 10,000 cells per well and maintained for 2 weeks. For analysis of clonogenicity, plates were washed with PBS, and keratinocytes were fixed in situ with 4% paraformaldehyde (PFA) for 1 hour, followed by staining with 1% (wt/vol) Rhodamine B (Sigma-Aldrich) for 1 h. Clones were quantified using a backlight.
Cells were lyzed in RIPA buffer in the presence of protease and phosphatase inhibitors on ice, and protein lysates were resuspended in Laemmli sample buffer. Whole-cell lysates were fractionated on TGX Stain-free protein gels and transferred to a PVDF membrane, blocked with 5% non-fat milk in TBST, and incubated with antibodies listed in the Key Resources Table (all 1:1000, diluted in TBST/3% BSA) overnight. Membranes were washed the following day and incubated with HRP-conjugated secondary antibodies (1:5000), washed, and developed with Luminata Forte Western HRP Substrate and visualized on the BioRAD ChemiDOC MP Imaging system. GAPDH or (3-actin were used as loading controls, depending on the mass of the proteins of interest.
Hair follicle stem cells (HFSCs) (ITGA6+ Sca-1− population isolated from telogen skin), were cultured and stimulated with OSM at 10 ng/ml and 20 ng/ml. […] (FIG. 1C).

The test system of data set [2] is Neonatal keratinocytes and dermal cells. Briefly: Hair reconstitution (patch) assay. Conditions: tofacitinib 400 nM or OSM 25 ng/ml added to cell slurry injected intradermally into nude mouse. The class given is in vivo. On the procedure:
(§2) For in vivo macrophage inhibition, the small molecule Pexidartinib/PLX3397 was administered topically (2 mM in DMSO) or subcutaneously (1 mM in corn oil) for 5 consecutive days from P60. For OSM knock-down, peritoneal macrophages were harvested from adult C57BL/6 mice and cultured in DMEM/F12/15% FBS/0.3 mMCa2+ the presence of […] M-CSF to polarize them to an “M2-like” phenotype, similar to trichophages. Lentiviral precipitate containing scrambled or OSM shRNA added to the media in the presence of 8 μg/ml protamine sulphate, and the cells were centrifuged at 3000 rpm for 1 h at 32° C. to enhance transduction. Successful transductions were enriched with puromycin (1 μg/ml) selection, counted and used for the patch assay.
Neonatal (P0 or P1) mice were sacrificed and skins were harvested for the patch assay. Neonatal skins were enzymatically separated with 0.25% trypsin, and the dermis was further digested with 0.3% collagenase/DNase. Neonatal keratinocytes and dermal cells were counted recombined in a 1:1 ratio ([…] each) and resuspended in 100 μl of media (1:1 mix of DMEM/10% FBS and CnT-0.7S) and injected intradermally into the dorsal skin of a nude mouse. For pharmacological/cytokine treatment, tofacitinib (400 nM) and/or OSM (25 ng/ml) was added. […]

For data set [3], the system named is alopecia areata. Conditions: patients, literature (Mackay-Wiggan 2016; Kennedy Crispin 2016); cited from earlier work.
Data set [4] relates to (ITGA6+ Sca-1−) HFSCs. In words: Colony-forming assay with isolated HFSCs. In kind it is cell-based, mouse. Conditions: for colony formation of HFSCs: OSM 10 ng/ml or Tofacitinib 100 nM alone. The method, then: as §1
Colony-forming assays with isolated (ITGA6+ Sca-1−) HFSCs were performed in the presence of OSM (10 ng/ml), Tofacitinib (100 nM) or both. […] (FIG. 1E).

For data set [5], the system named is telogen skin. In words: Anagen induction by topical JAK inhibitor in mouse telogen skin. In kind it is in vivo. Conditions: topical to dorsal skin for 5 days at P60 (mid-telogen), C57BL/6 mice. From the text:
(§3) Mice were carefully shaved with clippers during telogen to reveal the pink skin typical of the telogen phase 1 week prior to the experiment. Mice that were inadvertently wounded were not used. Anagen was induced by topical application of 2% Ruxolitinib in DMSO to the right side of the dorsal skin daily for 5 consecutive days. The hair cycle was observed and documented with standardized photographs taken prior to the first treatment, and then twice weekly thereafter. Murine IL-6, LIF or OSM (100 ng/ml, 50 ng/ml, 125 ng/ml respectively) were dissolved in sterile PBS and 100 μl was injected into the center of the field of application daily for 10 consecutive days, beginning with the first application of Ruxolitinib.
(§4) OSM and other gp130 cytokines (IL-6 and Leukemia Inhibitory Factor, LIF) were tested for their ability to inhibit anagen resulting from topical JAK inhibitors, which resembles spontaneous anagen. C57BL/6 mice were treated on the right dorsal skin topically with Ruxolitinib 2% in DMSO at P60 (mid-telogen) for 5 days, recapitulating previous experiments in Harel, S., et al., Pharmacologic inhibition of JAK-STAT signaling promotes hair growth. Sci Adv, 2015. 1(9): p. e1500973. […] From P60, mice were also injected with control PBS or a gp130 cytokine (IL-6, LIF or OSM) into the middle of the field of topical application for 10 days. […] (FIG. 1A).

For data set [6], the system named is T regulatory cells / macrophages. In words: Anagen initiation after T regulatory cell depletion or macrophage targeting. In kind it is in vivo, mouse. On the procedure:
(§5) Neutralizing antibodies to OSMR (7.5 μg) were injected intradermally into the dorsal telogen skin daily for 14 days from P60 (mid-telogen). Neutralizing antibodies to CSFL1R (AFS98) and F4/80 (CI:A3-1) were diluted in sterile PBS, and 500 μg was injected intradermally into the dorsal telogen skin for 14 consecutive days. Neutralizing antibodies to CD25 (PC61.5) were injected intraperitoneally every other day (250 μg/dose×3) from P53, prior to anagen induction at P60.

In data set [7] the test system is macrophages. Briefly: Macrophage inhibition during telogen to initiate anagen. In kind it is in vivo, mouse. Conditions: mid-telogen, C57BL/6 mice. The method, then: as §5, §2
Three independent methods of macrophage inhibition during telogen were used to initiate anagen in C57BL/6 mice.

The test system of data set [8] is hair follicles. Conditions: cited from earlier work.
Data set [9] deals with telogen skin. In words: Inhibition of topical JAK inhibitor-induced anagen by intradermal gp130 cytokines. The class given is in vivo, mouse. Conditions: cytokine injected intradermally into middle of field of topical application for 10 days from P60, C57BL/6 mice.
From the text: as §3, §4

Where [10] appears, read: pre-treatment 10 μM for 20 min before OSM.
[11] abbreviates: OSM at 10 ng/ml and 20 ng/ml, cultured HFSCs.

With `C[C@@H]1CCN(C(=O)CC#N)C[C@@H]1N(C)c1ncnc2[nH]ccc12` [Tofacitinib], in [1] (setting [10]), the “effect on JAK phosphorylation in OSM-stimulated HFSCs (Western blot)” value is given as “inhibited phosphorylation of a variety of JAKs”; the “effect on pSTAT3 / pSTAT5 activation in OSM-stimulated HFSCs (Western blot)” value (“effect on pSTAT3 / pSTAT5 activation” below) is “inhibited both pSTAT3 and pSTAT5 activation”. The “inhibition of OSM-activated pathways by pre-treatment (Western blot)” value in [1] (pre-treatment 10 μM for 20 min before OSM, cultured HFSCs) is “inhibited the JAK-STAT and, to a lesser extent, the MAPK-MEK-ERK pathways”. Further, the “hair reconstitution in patch assay” value in data set [2] is recorded as “enhanced the hair follicles generated in this assay”. For the same molecule, the “efficacy in alopecia areata” value in data set [3] is listed as “efficacious in the treatment of alopecia areata”. The “colony formation of HFSCs” value in data set [4] was “increased the colony-forming ability of HFSCs, as well as increasing the colony size”. In addition, the “rescue of the inhibitory effects of OSM on colony formation” value in data set [4] (Tofacitinib 100 nM together with OSM 10 ng/ml) is listed as “sufficient to rescue the inhibitory effects of OSM”.

In the case of `C=CC(=O)N1C[C@H](Nc2ncnc3[nH]ccc23)CC[C@@H]1C` [PF-06651600], the “anagen induction in telogen skin” value in [5] is reported as “sufficient to initiate anagen”. Also, in data set [1] (setting [10]), the “effect on JAK phosphorylation in OSM-stimulated HFSCs (Western blot)” value is recorded as “did not have an effect on JAK1/JAK2/Tyk2 or STAT3 phosphorylation” and the “effect on pSTAT3 / pSTAT5 activation” value is on record as “without significant inhibition of STAT3 phosphorylation”. Also, in [1] (pre-treatment 10 μM for 20 min before OSM, listed as PF-06651660), the “effect on pSTAT3 / pSTAT5 activation” value was “still inhibited pSTAT5 activation”.

With `FC(F)(F)c1ccc(CNc2ccc(Cc3c[nH]c4ncc(Cl)cc34)cn2)cn1` [Pexidartinib, 5-[(5-chloro-1H-pyrrolo[2,3-b]pyridin-3-yl)methyl]-N-[[6-(trifluoromethyl)pyridin-3-yl]methyl]pyridin-2-amine], the “anagen initiation compared with wild-type mice treated with a JAK-inhibitor” value in data set [6] is listed as “initiated anagen in the same manner as wild-type mice treated with a JAK-inhibitor”. Further, the anagen initiation entry in [7] (subcutaneous (1 mM in corn oil) for 5 days) and in data set [7] (topical (2 mM in DMSO) for 5 days) was “successful at initiating anagen” each time.

B1: OSM: secreted cytokine of the LIF/OSM family; murine OSM used in tests (protein, UniProt P53347 25-206, looked up)
Oncostatin-M: NRGCSNSSSQLLSQLQNQANLTGNTESLLEPYIRLQNLNTPDLRAACTQHSVAFPSEDTLRQLSKPHFLSTVYTTLDRVLYQLDALRQKFLKTPAFPKLDSARHNILGIRNNVFCMARLLNHSLEIPEPTQTDSGASRSTTTPDVFNTKIGSCGFLWGYHRFMGSVGRVFREWDDGSTRSRR
B1: in [8] (mouse, literature), the effect on anagen result is given as “potent inhibitor of anagen”. Also, the “inhibition of anagen resulting from topical Ruxolitinib” value in data set [9] was “inhibited anagen in the area it was administered”. In [1] (setting [11]), the “activation of JAK-STAT and MAPK-MEK-ERK pathways (Western blot)” value was “activated JAK-STAT1/3/5 pathways and the MAPK-MEK-ERK pathways in HFSCs in a dose-dependent fashion”; the “effect on PI3K/Akt/mTOR pathway (Western blot)” value is listed as “minimal effect on the PI3K/Akt/mTOR pathway”. In addition, the “activation of JAKs, pSTAT3 and pSTAT5 (Western blot)” value in [1] (OSM-stimulated cultured HFSCs) was “dose-dependent activation of all four JAKs (JAK1, JAK2, JAK3, Tyk2), as well as pSTAT3 and pSTAT5”. Moreover, in data set [2], the “hair reconstitution in patch assay” value is recorded as “sufficient to nearly completely inhibit hair reconstitution”. Besides, the “colony formation of HFSCs” value in [4] was “prevented colonies from forming in vitro”.

B2: IL-6: gp130 cytokine, murine IL-6 (protein, UniProt P08505 25-211, looked up)
Interleukin-6: FPTSQVRRGDFTEDTTPNRPVYTTSQVGGLITHVLWEIVEMRKELCNGNSDCMNNDDALAENNLKLPEIQRNDGCYQTGYNQEICLLKISSGLLEYHSYLEYMKNNLKDNKKDKARVLQRDTETLIHIFNQEVKDLHKIVLPTPISNALLTDKLESQKEWLRTKTIQFILKSLEEFLKVTLRSTRQT
As to B2, in data set [8] (anagen HFs, literature (Kwack 2012)), the induction of catagen entry is “IL-6 induced catagen in anagen HFs”. For the same molecule, the “inhibition of anagen resulting from topical Ruxolitinib” value in [9] is on record as “OSM was the only member of this class of cytokines that inhibited anagen”.

The values above are taken from patent US20190142722A1, “METHODS AND COMPOSITIONS FOR PROMOTING OR INDUCING HAIR GROWTH” (THE TRUSTEES OF COLUMBIA UNIVERSITY IN THE CITY OF NEW YORK, priority 2017, published 2019).
